These molecules were tested against ATX (Homo sapiens (Human), UniProt Q13822) (assay: ATX enzyme inhibition assay (Amplex UltraRed/choline oxidase/HRP, 16:0 Lyso PC substrate)). Conditions: assay buffer pH 7.5; read-out: IC50 (nM) pH 7.5.
Type: biochemical
Description: All compounds were prepared as a 10 mM DMSO stock solution.
Solutions at pH 8.5 and pH 7.5 were prepared respectively with the following formulations:
All compounds, including the positive control compound, were diluted 5-fold from 10 mM to 2 mM with DMSO in the first step. The mixture was then diluted to 100 μM with 1× assay buffer.
3. Separate Detection of Compounds with 1× Assay Buffer at Two pH Values:
a) 5 μL of 10× compound diluent was added to a 384-well plate (Greiner 781209) using a motorized pipette (see the “experimental preparation” step). 5 μL of 1× assay buffer containing 5% DMSO was added to both negative and positive control wells. The plate was centrifuged at 300 rpm for 1 minute at room temperature.
b) 2× ATX ([…]) was prepared with 1× assay buffer, and 25 μL of 2× ATX was added to the plate using a motorized pipette. 25 μL of 1× assay buffer was added to the negative control wells and 25 μL of 2× ATX was added to the positive control wells. The plate was centrifuged at 300 rpm for 1 minute at room temperature.
The plate was incubated at room temperature for 10 minutes.
c) 2.5× working solution containing Amplex UltraRed reagent (125 μM), HRP (2.5 U/mL), choline oxidase (1.25 U/mL), and 16:0 Lyso PC (75 μM) was prepared with 1× assay buffer. 20 μL of 2.5× working solution was added to all reaction wells using a motorized pipette. The plate was centrifuged at 300 rpm for 1 minute at room temperature.
d) The plate was detected by SpectraMax with the following procedures: fluorescence mode; excitation at 550 nm; emission at 590 nm; kinetics; read once every 2 minutes; read continuously for 60 minutes.
The calculation formula of % inhibition (i.e., % inhibition rate) was as follows: […]
V0: X-axis is taken as 0 to 30 minutes, Y-axis is taken as fluorescence readings, and the slope corresponding to the straight line fitted by the software GraphPad Prism 8 is the initial response rate.
V0max: Average V0 of the positive control wells in the plate.
V0min: Average V0 of the negative control wells in the plate.
The IC50 of the compounds was calculated from a nonlinear regression line (dose-initial response rate) fitted by % inhibition and log value of compound concentration using the software GrahPad Prism 8.

Row | IC50 [nM] | Structure (SMILES)
1 | 656 | CN(c1nc(-c2ccc(F)cc2)c(C#N)s1)c1c2c(nc3c(F)cc(N4CCN(CC(=O)N5CC(F)(F)C5)CC4)cc13)CCC2 [Example A15]

Same assay, conditions: assay buffer pH 8.5; read-out: IC50 (nM) pH 8.5

Row | Structure (SMILES) | IC50 [nM]
2 | C[C@@H]1CN(CC(=O)N2CC(O)C2)CCN1c1cc(F)c2nc3c(c(N(C)c4nc(-c5ccc(F)cc5)c(C#N)s4)c2c1)CC[C@@H]3O (single isomer, unassigned) [Example E6-a] | 18.3
3 | CN(c1nc(-c2ccc(F)cc2)c(C#N)s1)c1c2c(nc3c(F)cc(N4CC5(CN(C(=O)[C@H]6COC[C@@H]6O)C5)C4)cc13)[C@@H](O)CC2 (single isomer, unassigned) [Example E20-c] | 25.7
4 | CN(c1nc(-c2ccc(F)cc2)c(C#N)s1)c1c2c(nc3c(F)cc(N4CCN(CC(=O)N5CC(O)C5)CC4)cc13)CCCC2 [Example A27] | 111
5 | CN(c1nc(-c2ccc(F)cc2)c(C#N)s1)c1c2c(nc3c(F)cc(N4CCN(CC(=O)N5CC(F)(F)C5)CC4)cc13)CCC2 [Example A15] | 134

Other lines, results leading:

Row | IC50 [nM] | Structure (SMILES)
6 | 75.3 | CN(c1nc(-c2ccc(F)cc2)c(C#N)s1)c1c2c(nc3c(F)cc(N4CC5(CN(CC(=O)N6CC(O)C6)C5)C4)cc13)CCO2 [Example A23]
7 | 21.5 | CN(c1nc(-c2ccc(F)cc2)c(C#N)s1)c1c2c(nc3c(F)cc(N4CC5(CN(C(=O)N6CCCC6)C5)C4)cc13)[C@H](O)CC2 (single isomer, unassigned) [Example E17-b]
8 | 22.1 | C[C@H]1CN(CC(=O)N2CC(O)C2)CCN1c1cc(F)c2nc3c(c(N(C)c4nc(-c5ccc(F)cc5)c(C#N)s4)c2c1)COC3 [Example A30]
9 | 44.6 | C[C@H]1CN(c2cc(F)c3nc4c(c(N(C)c5nc(-c6ccc(F)cc6)c(C#N)s5)c3c2)COC4)CCN1CC(=O)N1CC(O)C1 [Example A33]
10 | 44.9 | CN(c1nc(-c2ccc(F)cc2)c(C#N)s1)c1c2c(nc3c(F)cc(N4CCN(CC(=O)NO)CC4)cc13)CC2 [Example F1]

— patent US20250051321A1, “TRICYCLIC DERIVATIVE AND PREPARATION METHOD THEREFOR AND APPLICATION THEREOF” (SHANGHAI JEMINCARE PHARMACEUTICAL CO., LTD., priority 2021, published 2025)
